Measured values as given in publication PMC11156954, “Inhibition and transport mechanisms of the ABC transporter hMRP5” (Nature Communications, 2024).
Like-named read-outs stand apart in the source and are kept apart here.

Key:
MRP5 [1] = details: reducing expression of endogenous MRP5; drug and, for 5-fluorouracil, its metabolites; ref [24],[25]; cited from earlier work
From the text: Patients with high hMRP5 levels tend to have a worse survival rate than those with low expression[20]–[22]. Further, overexpression of hMRP5 is a strong predictor of poor outcomes in cancer patient cohorts[19],[22],[23].

hMRP5 = test system: hMRP5; set-up: method as in 2 sources, ref [15]–[18] = [15]; PMID 28277541; doi:10.1038/cddis.2017.53; 15. Hou Y The FOXM1-ABCC5 axis contributes to paclitaxel resistance in nasopharyngeal carcinoma cells Cell Death Dis. 2017 8 e2659 10.1038/cddis.2017.53 28277541 PMC5386553 || [16]; PMID 26975227; doi:10.1038/tpj.2016.17; 16. Lal S Pharmacogenetics of ABCB5, ABCC5 and RLIP76 and doxorubicin pharmacokinetics in Asian breast cancer patients Pharmacogenomics J. 2017 17 337 343 10.1038/tpj.2016.17 26975227 || [17]; PMID 15897250; doi:10.1158/1535-7163.MCT-04-0291; 17. Pratt S The multidrug resistance protein 5 (ABCC5) confers resistance to 5-fluorouracil and transports its monophosphorylated metabolites Mol. Cancer Ther. 2005 4 855 863 10.1158/1535-7163.MCT-04- || [18]; PMID 10840050; doi:10.1073/pnas.120159197; 18. Wijnholds J Multidrug-resistance protein 5 is a multispecific organic anion transporter able to transport nucleotide analogs Proc. Nat. Acad. Sci. USA 2000 97 7476 7481 10.1073/pnas.120159197 1084 ||| ref [18] = [18]; PMID 10840050; doi:10.1073/pnas.120159197; 18. Wijnholds J Multidrug-resistance protein 5 is a multispecific organic anion transporter able to transport nucleotide analogs Proc. Nat. Acad. Sci. USA 2000 97 7476 7481 10.1073/pnas.120159197 1084; details: cited from earlier work; for efflux by hMRP5 / contribution to drug resistance, in words: anticancer drugs, ref [15]–[18]
GFP-hMRP5 = test: Doxorubicin transport assay in Xenopus laevis oocytes; format: cell-based, human; details: no peptide, 200 μM doxorubicin, 180 min, Kulori buffer pH 7.4, final 50 μl extract, LC-MS, *P = 0.0190 blank vs GFP-hMRP5
Protocol: The transport assay was essentially done and modified as described. In brief, the cRNAs of C-terminal GFP-tagged hMRP5 and C-terminal mcherry-tagged M5PI were prepared from the linearized pcs2CAG vector DNA templates using the mMESSAGE mMACHINE T7 transcription system (Thermo Scientific, AM1344). Xenopus oocytes were injected with approximately 30 nl of cRNA (GFP-tagged hMRP5 and mcherry-tagged M5PI have the equal quantity 30 ng) or water after maintained in ND96 solution (96 mM NaCl, 2 mM KCl, 1 mM MgCl2, 1.8 mM CaCl2, 5 mM HEPES, pH 7.4) overnight. After 3 days of culture, the GFP and mcherry fluorescence of oocytes was detected using Nikon Confocal A1R, and oocytes showing similar fluorescence intensity were selected for assay. Then, oocytes were pre-incubated in Kulori buffer (90 mM NaCl, 1 mM KCl, 1 mM MgCl2, 5 mM HEPES, pH 7.4) for 5 min before being transferred to 1 ml Kulori buffer containing 200 μM doxorubicin for 180 min. The assay was stopped by removing the buffer and then washed with Kulori buffer at least 3 times and transferred into 1.5 ml tubes (3 oocytes per tube). Excess washing buffer was removed from the tube, and then 50 μl 50% methanol was added to the tube for oocyte homogenization by pipetting. The homogenized samples were centrifuged at 10,000 × g for 10 min at 4 °C, and the supernatants were transferred into new tubes and incubated at −20 °C until further analysis. The samples were acquired with a Q Exactive mass spectrometer coupled with UltiMate 3000 liquid chromatography system (Thermo scientific, CA, USA) after centrifugation at 20,000 × g for 15 min at 4 °C. A Hypersil GOLDTM C18 column (2.1 ×100 mm, 1.9 μm, Thermo Scientific) was used at a flow rate of 0.3 ml min^−1 for separation. Mobile phase A was 0.1% formic acid, while mobile phase B was acetonitrile modified with 0.1% formic acid. The mass spectrometer was operated in positive mode with a spray voltage of 3.5 kV. Full scan mass spectrometry data were recorded from the m/z range of 80–800. A standard dilution curve for quantification of doxorubicin was done. Statistical analysis of the transport assay results was performed using GraphPad Prism. Source data is provided as Source Data 6. The mass spectrometry data is provided as Supplementary Data 3.

hMRP5-Δ1-94 = target: T1, hMRP5-Δ1-94 (Homo sapiens, UniProt O15440); test: MST binding assay, hMRP5-Δ1-94; details: for binding affinity to hMRP5, in words: MST, digitonin-purified hMRP5-Δ1-94, 15 min at room temperature
T1 construct: The codon-optimized full-length human ABCC5 gene encoding the MRP5 protein (UniProt ID: O15440); 8xHis (C); 2xstrep (C); made in house; host or cells: HEK293F
Protocol: We monitored the binding of different peptides to digitonin-purified hMRP5-Δ1-94-8xHis by MST assay (Monolith NT). HEPES buffer was used to replace Tris buffer during protein purification in the MST assay. The purified protein was mixed with RED-tris-NTA 2nd Generation dye (NanoTemper, MO-L018). Next, serially diluted peptides were mixed with the labeled protein. The mixtures were incubated for 15 min at room temperature, then the capillaries were loaded and the samples were assessed at 3% LED/excitation power and medium MST power. All peptides used in this study were synthesized in GL Biochem (Shanghai). The peptide sequence is provided as Source Data 5. The MST data were analyzed with MO.Affinity Analysis software.

MRP5 [2] = test system: MRP5; set-up: method as in PMID 16337112, PMID 15006554, PMID 10893247; details: ref [25],[29],[30]; cited from earlier work
hMRP4 = target: T2, hMRP4 (Homo sapiens, UniProt O15439); test: MST binding assay, hMRP4
T2 sequence (O15439 1-1325): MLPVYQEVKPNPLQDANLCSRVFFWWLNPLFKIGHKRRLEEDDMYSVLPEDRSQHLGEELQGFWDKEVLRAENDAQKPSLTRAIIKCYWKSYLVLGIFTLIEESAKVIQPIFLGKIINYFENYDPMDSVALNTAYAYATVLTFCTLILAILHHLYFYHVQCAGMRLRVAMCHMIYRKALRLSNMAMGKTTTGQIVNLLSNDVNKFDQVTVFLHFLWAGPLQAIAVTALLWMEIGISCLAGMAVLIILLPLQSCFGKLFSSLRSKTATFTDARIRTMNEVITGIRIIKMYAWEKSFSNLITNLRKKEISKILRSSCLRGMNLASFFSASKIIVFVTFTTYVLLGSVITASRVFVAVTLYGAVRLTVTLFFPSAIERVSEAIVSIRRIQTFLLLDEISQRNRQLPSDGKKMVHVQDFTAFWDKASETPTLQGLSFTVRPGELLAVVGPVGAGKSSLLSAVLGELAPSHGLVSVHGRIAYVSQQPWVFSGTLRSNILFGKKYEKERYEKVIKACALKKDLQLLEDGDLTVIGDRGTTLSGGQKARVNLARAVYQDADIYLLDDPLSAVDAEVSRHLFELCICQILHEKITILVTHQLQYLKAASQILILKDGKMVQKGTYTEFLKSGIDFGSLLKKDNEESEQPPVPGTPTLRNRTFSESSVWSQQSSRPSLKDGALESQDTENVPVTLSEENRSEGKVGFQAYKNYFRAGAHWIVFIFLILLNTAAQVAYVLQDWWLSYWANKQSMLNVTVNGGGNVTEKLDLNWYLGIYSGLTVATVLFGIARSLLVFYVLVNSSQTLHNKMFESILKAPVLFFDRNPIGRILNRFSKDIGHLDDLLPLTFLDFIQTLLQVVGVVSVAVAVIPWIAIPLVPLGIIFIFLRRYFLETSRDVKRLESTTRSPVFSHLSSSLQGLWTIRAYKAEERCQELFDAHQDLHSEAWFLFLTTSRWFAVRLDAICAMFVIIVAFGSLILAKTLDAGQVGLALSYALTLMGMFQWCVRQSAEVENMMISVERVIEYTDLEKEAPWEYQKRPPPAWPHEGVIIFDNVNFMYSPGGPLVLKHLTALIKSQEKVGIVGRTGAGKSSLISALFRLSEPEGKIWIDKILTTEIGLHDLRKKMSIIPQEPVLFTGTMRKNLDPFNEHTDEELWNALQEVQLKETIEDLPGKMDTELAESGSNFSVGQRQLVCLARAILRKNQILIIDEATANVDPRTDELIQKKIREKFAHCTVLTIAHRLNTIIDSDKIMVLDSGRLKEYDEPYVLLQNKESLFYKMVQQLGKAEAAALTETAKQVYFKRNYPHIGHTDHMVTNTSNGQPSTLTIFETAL

T1 sequence (O15440 95-1437 limits assumed, stated change not applied): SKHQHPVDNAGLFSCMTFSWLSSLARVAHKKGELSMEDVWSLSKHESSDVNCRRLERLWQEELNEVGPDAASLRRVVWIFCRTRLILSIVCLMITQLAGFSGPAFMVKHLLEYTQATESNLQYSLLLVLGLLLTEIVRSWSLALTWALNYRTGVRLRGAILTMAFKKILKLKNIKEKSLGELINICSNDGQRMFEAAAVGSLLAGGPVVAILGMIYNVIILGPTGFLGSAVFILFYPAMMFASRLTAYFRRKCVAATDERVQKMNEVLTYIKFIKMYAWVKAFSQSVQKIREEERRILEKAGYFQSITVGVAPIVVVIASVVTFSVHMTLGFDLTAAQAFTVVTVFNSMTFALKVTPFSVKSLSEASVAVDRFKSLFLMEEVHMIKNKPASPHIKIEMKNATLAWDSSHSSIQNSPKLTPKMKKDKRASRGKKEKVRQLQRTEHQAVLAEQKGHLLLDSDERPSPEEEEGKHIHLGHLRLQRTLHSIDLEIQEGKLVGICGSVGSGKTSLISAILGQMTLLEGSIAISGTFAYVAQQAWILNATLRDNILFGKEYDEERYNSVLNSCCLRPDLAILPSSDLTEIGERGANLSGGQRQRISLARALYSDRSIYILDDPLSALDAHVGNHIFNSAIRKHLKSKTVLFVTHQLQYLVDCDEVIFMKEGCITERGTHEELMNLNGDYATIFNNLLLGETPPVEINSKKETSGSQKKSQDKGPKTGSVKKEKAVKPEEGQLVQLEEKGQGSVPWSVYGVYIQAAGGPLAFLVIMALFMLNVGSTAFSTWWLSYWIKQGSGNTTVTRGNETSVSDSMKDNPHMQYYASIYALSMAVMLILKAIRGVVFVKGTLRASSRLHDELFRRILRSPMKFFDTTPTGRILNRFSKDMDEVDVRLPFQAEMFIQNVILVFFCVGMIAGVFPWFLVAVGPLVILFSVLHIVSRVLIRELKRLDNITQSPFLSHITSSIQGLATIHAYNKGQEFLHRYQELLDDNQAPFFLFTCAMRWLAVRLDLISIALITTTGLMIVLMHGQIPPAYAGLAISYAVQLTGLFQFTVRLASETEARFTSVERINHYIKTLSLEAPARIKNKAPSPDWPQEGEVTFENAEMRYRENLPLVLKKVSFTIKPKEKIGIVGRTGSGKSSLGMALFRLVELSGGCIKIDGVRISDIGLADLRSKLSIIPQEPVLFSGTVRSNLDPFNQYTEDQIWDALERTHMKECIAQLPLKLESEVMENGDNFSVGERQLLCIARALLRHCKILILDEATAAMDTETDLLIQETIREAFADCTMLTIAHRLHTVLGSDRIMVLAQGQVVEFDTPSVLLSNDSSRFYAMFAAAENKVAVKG

For `O=c1[nH]cc(F)c(=O)[nH]1` [5-fluorouracil], the “intracellular drug concentration on reducing endogenous MRP5, in words” value (MRP5 [1]) is given as “notably increase the intracellular concentrations”.
In the case of `Nc1ncnc2c1ncn2CCOCP(=O)(O)O` [9-(2-phosphonomethoxyethyl) adenine], the “transport by hMRP5, in words” value (hMRP5; antiviral monophosphate nucleotide analog, ref [18]) is listed as “leading to antiviral multidrug resistance”.
In the case of `COc1cccc2c1C(=O)c1c(O)c3c(c(O)c1C2=O)C[C@@](O)(C(=O)CO)C[C@@H]3O[C@H]1C[C@H](N)[C@H](O)[C@H](C)O1` [Doxorubicin, doxorubicin], the “Doxorubicin concentration in oocyte extract, GFP-hMRP5” value (shortened to “Doxorubicin concentration”) (GFP-hMRP5; replicate 1) is reported as 323.646 nM, the “Doxorubicin concentration” value (GFP-hMRP5; replicate 2) is reported as 292.08 nM and the “Doxorubicin concentration” value (GFP-hMRP5; replicate 3) is reported as 493.92 nM. For the same molecule, the “Doxorubicin concentration” value (GFP-hMRP5; replicate 4) was 266.323 nM, the Kd (hMRP5-Δ1-94) was 53.5 ± 22.9 µM and the “efflux by hMRP5 / contribution to drug resistance, in words” value (shortened to “efflux by hMRP5 / contribution”) (hMRP5) was “directly contribute to cancer drug resistance through the efflux”.
For `CN(C)C(=O)CCSC(SCCC(=O)O)c1cccc(/C=C/c2ccc3ccc(Cl)cc3n2)c1` (stereo not shown) [MK-571], the “inhibition of MRP5 transport activity, in words” value (from here on “inhibition”) (MRP5 [2]) is given as “reported to inhibit the transport activity of MRP5”.
For `CCCCC[C@H](O)/C=C/[C@H]1[C@H](O)CC(=O)[C@@H]1CCCCCCC(=O)O` [PGE1, prostaglandin E1], the Kd (hMRP4) was 3.73 ± 0.66 µM and the “binding affinity to hMRP4, in words” value (hMRP4; MST, three independent measurements) was “hMRP4 could capture prostaglandin E1 (PGE1)”.
In the case of `COc1cc2c(cc1OC)-c1c/c(=N\c3c(C)cc(C)cc3C)n(C)c(=O)n1CC2` [Trequinsin, trequinsin], the Kd (hMRP5-Δ1-94; digitonin-purified hMRP5-Δ1-94-8xHis, HEPES buffer, RED-tris-NTA 2nd Generation dye, 15 min at room temperature, 3% LED/excitation power, medium MST power, mean ± SEM of three independent measurements, read-out: binding affinity (MST), KD value) is given as 42.4 ± 17.5 µM and the “inhibition” value (MRP5 [2]) is given as “reported to inhibit the transport activity of MRP5”.
In the case of `Nc1nc2c(ncn2[C@@H]2O[C@@H]3COP(=O)(O)O[C@H]3[C@H]2O)c(=O)[nH]1` [cGMP, cyclic GMP], the “binding affinity to hMRP5, in words” value (hMRP5-Δ1-94) is reported as “relatively low binding affinity”.
In the case of `N.N.[Cl][Pt][Cl]` [cisplatin], the “efflux by hMRP5 / contribution” value (hMRP5) is listed as “directly contribute to cancer drug resistance through the efflux”.
In the case of `CN(Cc1cnc2nc(N)nc(N)c2n1)c1ccc(C(=O)N[C@@H](CCC(=O)O)C(=O)O)cc1` [methotrexate], the “efflux by hMRP5 / contribution” value (hMRP5) is given as “directly contribute to cancer drug resistance through the efflux”.
For `Nc1nc2[nH]cc(CCc3ccc(C(=O)N[C@@H](CCC(=O)O)C(=O)O)cc3)c2c(=O)[nH]1` [pemetrexed], the “intracellular drug concentration on reducing endogenous MRP5, in words” value (MRP5 [1]) is given as “notably increase the intracellular concentrations”.
For `CCCN(CCC)S(=O)(=O)c1ccc(C(=O)O)cc1` [probenecid], the “inhibition” value (MRP5 [2]) is listed as “reported to inhibit the transport activity of MRP5”.
With `CC(=O)[C@H]1CC[C@H]2[C@@H]3CCC4=CC(=O)CC[C@]4(C)[C@H]3CC[C@]12C` [progesterone] the “binding affinity to hMRP5, in words” value (hMRP5-Δ1-94) was “relatively low binding affinity”.
In the case of `CCCc1nn(C)c2c(=O)[nH]c(-c3cc(S(=O)(=O)N4CCN(C)CC4)ccc3OCC)nc12` [sildenafil], the “inhibition” value (MRP5 [2]) is given as “reported to inhibit the transport activity of MRP5”.
For `C[C@]12CC[C@H]3[C@@H](CCC4=CC(=O)CC[C@@]43C)[C@@H]1CC[C@@H]2O` [testosterone], the “binding affinity to hMRP5, in words” value (hMRP5-Δ1-94) was “relatively low binding affinity”.
In the case of `CCCOc1ccccc1-c1nc2nn[nH]c2c(=O)[nH]1` [zaprinast], the “inhibition” value (MRP5 [2]) is listed as “reported to inhibit the transport activity of MRP5”.
